Reference: ChEMBL document CHEMBL3885861, “Open TG-GATES”

Organism: Rattus norvegicus
Assay: Open TG-GATES - Regimen: Single
Type: toxicity, organism-based, Sprague-Dawley
Parameters: regimen Single, gender Male, age 6 weeks
Settings: in vivo, iv, 1 mg/kg, route intravenous injection, dose level Low; for APTT / Bas / Eos / Fbg / Hb / Ht / Lym / MCH / MCHC / MCV / Mono / Neu / PT / Plat / RBC / Ret / WBC: tissue Blood; for KIDNEY_L / KIDNEY_R / KIDNEY_TOTAL: tissue Kidney

## C[C@@H]1[C@H](O)[C@@H](C)/C=C/C=C/C=C/C=C/C=C/C=C/C=C/[C@H](O[C@@H]2O[C@H](C)[C@@H](O)[C@H](N)[C@@H]2O)C[C@@H]2O[C@](O)(C[C@@H](O)C[C@@H](O)[C@H](O)CC[C@@H](O)C[C@@H](O)CC(=O)O[C@H]1C)C[C@H](O)[C@H]2C(=O)O [AMPHOTERICIN B]
3 h, tissue Plasma
  RALB: 2.6 g/dL
  TBIL: 0.058 mg/dL
  TC: 74 mg/dL
  TG: 53.8 mg/dL
  TP: 5.6 g/dL
  gamma-GTP: 2 IU/L
6 h
  TERMINAL_BW: 208.2 g
  APTT: 15.4 s
  Bas: 0%
  Eos: 0.8%
  Fbg: 286.6 mg/dL
  Hb: 13.3 g/dL
  Ht: 39.5%
  Lym: 68.6%
  MCH: 20.9 pg
  MCHC: 33.7%
  MCV: 62 fL
  Mono: 2.8%
  Neu: 27%
  PT: 12.8 s
  Plat: 135.3 x10_4/uL
  RBC: 636.4 x10_4/ul
  Ret: 7.9%
  WBC: 98.4 x10_2/uL
  KIDNEY_L: 1 g
  KIDNEY_R: 0.9 g
  KIDNEY_TOTAL: 1.9 g
6 h, tissue Liver
  LIVER: 9 g
6 h, tissue Plasma
  A/G: 0.8
  ALP: 1534.4 IU/L
  ALT: 38.2 IU/L
  AST: 70.8 IU/L
  BUN: 16.4 mg/dL
  CRE: 0.1 mg/dL
  Ca: 10.7 mg/dL
  Cl: 106.6 meq/L
  DBIL: 0.016 mg/dL
  GLC: 180 mg/dL
  IP: 10.1 mg/dL
  K: 3.4 meq/L
  LDH: 57.2 IU/L
  Na: 144.6 meq/L
  PL: 135 mg/dL
  RALB: 2.6 g/dL
  TBIL: 0.062 mg/dL
  TC: 83.8 mg/dL
  TG: 41.4 mg/dL
  TP: 5.7 g/dL
  gamma-GTP: 1.4 IU/L
9 h
  TERMINAL_BW: 208.6 g
  APTT: 16.5 s
  Bas: 0%
  Eos: 1%
  Fbg: 296.2 mg/dL
  Hb: 13.2 g/dL
  Ht: 38.5%
  Lym: 71.4%
  MCH: 20.9 pg
  MCHC: 34.2%
  MCV: 61 fL
  Mono: 1.8%
  Neu: 25.4%
  PT: 12.9 s
  Plat: 132.4 x10_4/uL
  RBC: 631.6 x10_4/ul
  Ret: 7.9%
  WBC: 97.1 x10_2/uL
  KIDNEY_L: 0.9 g
  KIDNEY_R: 0.9 g
  KIDNEY_TOTAL: 1.9 g
